PMC11995724, “Antibiotic target discovery by integrated phenotypic and activity-based profiling of electrophilic fragments” (Cell chemical biology, 2025)

Assay: in vitro
Conditions: human, hek293t cells

O=C(CCl)NC1COc2ncccc21 (stereo not drawn) [7-F10, 2-chloro-N-{2H,3H-furo[2,3-b]pyridin-3-yl}acetamide]
viability at 48 h, 25 µM: 53.7%

C=CC(=O)NCc1noc2c1CC(C)(C)CC2 [2-L07, N-[(5,5-dimethyl-4,5,6,7-tetrahydro-1,2-benzoxazol-3-yl)methyl]prop-2-enamide]
viability at 48 h, 25 µM: 60%

C=CC(=O)Nc1ccc(C(=O)N[C@H]2COC[C@@H]2OC)cc1 (racemic) [3-C08, rac-N-[(3R,4S)-4-methoxyoxolan-3-yl]-4-(prop-2-enamido)benzamide]
viability at 48 h, 25 µM: 85.1%

NC(=O)c1csc(C(=O)CCl)c1 [10-L06, 5-(2-chloroacetyl)thiophene-3-carboxamide]
viability at 48 h, 25 µM: 66.2%

CC1CCCN(C(=O)C(NC(=O)C(C)Cl)c2cnn(C)c2)C1 (stereo not drawn) [7-G12, 2-chloro-N-[1-(1-methyl-1H-pyrazol-4-yl)-2-(3-methylpiperidin-1-yl)-2-oxoethyl]propanamide]
viability at 48 h, 25 µM: 81.1%

CC(Cl)C(=O)N1CC(C(=O)N2CCN(C)CC2)Oc2ccccc21 (stereo not drawn) [7-A20, 2-chloro-1-[2-(4-methylpiperazine-1-carbonyl)-3,4-dihydro-2H-1,4-benzoxazin-4-yl]propan-1-one]
viability at 48 h, 25 µM: 77.1%

C=CC(=O)N1CC(c2cc(CO)on2)C1 [1-K20, 1-{3-[5-(hydroxymethyl)-1,2-oxazol-3-yl]azetidin-1-yl}prop-2-en-1-one]
viability at 48 h, 25 µM: 103%

C=CC(=O)NCc1csc2nccn12 [3-J13, N-({imidazo[2,1-b][1,3]thiazol-3-yl}methyl)prop-2-enamide]
viability at 48 h, 25 µM: 76.8%

Cc1nn(CC(C)C)c(Cl)c1C1CCCN1C(=O)C(C)Cl (stereo not drawn) [7-P19, 2-chloro-1-{2-[5-chloro-3-methyl-1-(2-methylpropyl)-1H-pyrazol-4-yl]pyrrolidin-1-yl}propan-1-one]
viability at 48 h, 25 µM: 78%

CN1C(=O)Cc2cc(C(=O)CCl)ccc21 [10-G07, 5-(2-chloroacetyl)-1-methyl-2,3-dihydro-1H-indol-2-one]
viability at 48 h, 25 µM: 46.1%

C=CC(=O)NCc1cc2cc(C)ccc2o1 [3-L14, N-[(5-methyl-1-benzofuran-2-yl)methyl]prop-2-enamide]
viability at 48 h, 25 µM: 85.4%

CCN(CC)S(=O)(=O)c1ccc(Cl)c(NC(=O)CCl)c1 [5-J12, 2-chloro-N-[2-chloro-5-(diethylsulfamoyl)phenyl]acetamide]
viability at 48 h, 25 µM: 0.662%

N#CC(=Cc1ccsc1)C(=O)NCc1ccco1 [9-H22, 2-cyano-N-[(furan-2-yl)methyl]-3-(thiophen-3-yl)prop-2-enamide]
viability at 48 h, 25 µM: 123%

COc1cc(NC(=O)CCl)c(OC)cc1Cl [5-C05, 2-chloro-N-(4-chloro-2,5-dimethoxyphenyl)acetamide]
viability at 48 h, 25 µM: 0.731%

CC(=O)N(C)Cc1ccc(C(=O)CCl)cc1 [10-H04, N-{[4-(2-chloroacetyl)phenyl]methyl}-N-methylacetamide]
viability at 48 h, 25 µM: 64%

Cc1ccc(F)c(N2CCC(NC(=O)CCl)CC2)c1 [5-M14, 2-chloro-N-[1-(2-fluoro-5-methylphenyl)piperidin-4-yl]acetamide]
viability at 48 h, 25 µM: 134%

CC(Cl)C(=O)N[C@H](C)c1cnnn1C (stereo partly drawn) [6-D13, 2-chloro-N-[(1R)-1-(1-methyl-1H-1,2,3-triazol-5-yl)ethyl]propanamide]
viability at 48 h, 25 µM: 103%

N#CC(=Cc1cccc(Cl)c1Cl)C(=O)NCc1ccccc1 [8-L04, N-benzyl-2-cyano-3-(2,3-dichlorophenyl)prop-2-enamide]
viability at 48 h, 25 µM: 13.2%

COc1cc(Cl)c(C)cc1NC(=O)C(C#N)=CC=Cc1ccccc1 [8-A21, N-(4-chloro-2-methoxy-5-methylphenyl)-2-cyano-5-phenylpenta-2,4-dienamide]
viability at 48 h, 25 µM: 82%

CC(Cl)C(=O)c1ccc(NC(=O)C(C)(C)C)cc1 (stereo not drawn) [10-M06, N-[4-(2-chloropropanoyl)phenyl]-2,2-dimethylpropanamide]
viability at 48 h, 25 µM: 97.9%

COc1ccc(C2=NN(C(=O)CCl)C(c3cccc(F)c3)C2)cc1 (stereo not drawn) [6-P04, 2-chloro-1-[5-(3-fluorophenyl)-3-(4-methoxyphenyl)-4,5-dihydro-1H-pyrazol-1-yl]ethan-1-one]
viability at 48 h, 25 µM: 0.182%
